Reference: patent US20210353579A1, “HIGH PENETRATION COMPOSITIONS AND USES THEREOF” (Techfields Pharma Co., Ltd., priority 2006, published 2021)
Where two headings read alike, the source gives them in different places.

How the values were obtained:
[1] = tested on: Chinese white rabbits; assay: Wound healing, scar area; type: in vivo, rabbit; details: 5% aqueous solution applied to the nearby area of wounds, vs control rabbits
From the text: 25 Chinese white rabbits were divided into 5 groups and hairs on the back of rabbits were removed (5×5 cm^2).

[2] = Plasma levels after transdermal administration to hairless mice; type: in vivo
Protocol: Tested compounds (20% solution or suspension in 1 mL isopropanol) are administered transdermally to the skin of intact hairless mice. The plasma levels of the parent compounds are determined by HPLC.

[3] = tested on: mice; assay: Analgesic activity, acetic acid writhing; type: in vivo
Protocol: The prodrug compounds are administered either transdermally or orally. The parent compounds are administered orally. The number of writhing that occurred when mice are administered the acetic acid solution are counted, and the rate of inhibition based on the control group which was not pretreated with any test compounds is calculated. […] The A group is the control group.

[4] = tested on: rats; assay: Antipyretic activity, E. coli suspension as pyrogen; type: in vivo; details: in °C (unit assumed)
Protocol: Rats are administered with sterilized E. coli suspension as a pyrogen. Each group of rats are administered with a prodrug compounds or parent compounds at a dosage specified below. The prodrug compounds are administered either orally or transdermally. The parent compounds are administered orally.

[5] = tested on: human skin tissue; assay: In vitro penetration rate through human skin, modified Franz cells; details: Franz cell; for In vitro penetration rate (apparent flux), prodrug compounds: 20% solution in 0.2 M phosphate buffer pH 7.4, human skin
[6] = tested on: Chinese white rabbits; assay: Malassezia-induced lesions similar to psoriasis; type: in vivo, rabbit; details: 5% aqueous solution twice per day, 10 days after application
From the text: Heavy suspensions of Malassezia [Rosenberg, E. W., et al., Mycopathologia, 72, 147-154 (1980)] were applied to the shaved skin on the backs of the Chinese white rabbits (n=4×6) twice (at 7 am and 7 pm) per day for 2 weeks, lesions similar to psoriasis resulted.

[7] = tested on: human skin tissue; details: pH 7.4
[8] = tested on: rat;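 further: acute toxicity in rats expressed as LD50, determined for both prodrugs and their parent compounds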
Protocol: The acute toxicity of the prodrug compounds and parent compounds are measured by LD50 of rat.

[9] = Solubility in water / aqueous solubility of HPPs and parent drugs; details: medium not given
[10] = 100 mg/kg transdermally, 30 min before acetic acid
[11] = transdermal, 20% in 1 mL isopropanol, hairless mice
[12] = 100 mg/kg transdermally, 60 minutes before acetic acid

| Compound | average scar area [1] | % (rate of writhing inhibition) [3, 10] | No. of Writhing [3, 10] | body temperature, t = 0 min ([4]; 100 mg/kg transdermally) | body temperature, t = 90 min ([4]; 100 mg/kg transdermally) | body temperature, t = 180 min ([4]; 100 mg/kg transdermally) | body temperature, t = 270 min ([4]; 100 mg/kg transdermally) | other results |
| --- | --- | --- | --- | --- | --- | --- | --- | --- |
| CC(C)Cc1ccc(C(C)C(=O)OCC2CCCNC2)cc1.Cl (centres unmarked) [3-piperidinemethyl 2-(ρ-isobutylphenyl) propionate.HCl] | only a third of that of the control rabbits |  |  |  |  |  |  |  |
| CC(C(=O)O)c1cccc(C(=O)c2ccccc2)c1 (centres unmarked) [Ketoprofen, 2-(3-benzoylphenyl) propionic acid, reference compound] |  |  |  |  |  |  |  | t, time to peak plasma level after parent compound ([2]; parent compound administered (time when taken orally)): 1 to 2 h; Peak plasma concentration after parent compound ([2]; parent compound administered, hairless mice): 1 mg/L; No. of Writhing ([3]; 50 mg/kg orally, 30 min before acetic acid): 18.1; inhibition at 50 mg/kg ([3]; Mus musculus, po, 50 mg/kg orally, 30 min before acetic acid, read-out: % (rate of writhing inhibition)): 48%; body temperature, t = 0 min ([4]; 50 mg/kg orally): 37.25 ± 0.06; body temperature, t = 90 min ([4]; 50 mg/kg orally): 36.81 ± 0.05; body temperature, t = 180 min ([4]; 50 mg/kg orally): 36.82 ± 0.08; body temperature, t = 270 min ([4]; 50 mg/kg orally): 36.78 ± 0.07; In vitro penetration rate (apparent flux), parent compounds ([5]; 20% suspension in 0.2 M phosphate buffer pH 7.4, human skin, detection limit 1): <1 μg/cm^2/h |
| CCc1cccc2c3c([nH]c12)C(CC)(CC(=O)OCCN(CC)CC)OCC3.Cl (centres unmarked) [diethylaminoethyl 1,8-diethyl-1,3,4,9-tetrahydropyrano-[3,4-b]indole-1-acetate.HCl] | only a third of that of the control rabbits |  |  |  |  |  |  |  |
| CC(=O)O.CCN(CC)CCOC(=O)COC(=O)Cc1c(C)n(C(=O)c2ccc(Cl)cc2)c2ccc(OC)cc12 [diethylaminoethyl 1-(4-chlorobenzoyl-5-methoxy-2-methyl-1H-indole-3-acetoxyacetate.AcOH] |  | 55% | 15.6 | 37.21 ± 0.06 | 36.75 ± 0.05 | 36.62 ± 0.08 | 36.58 ± 0.07 | Peak plasma concentration of parent compound after prodrug compound ([2]; mouse, in vivo): 20 mg/L; t, time to peak plasma level of parent compound after prodrug compound ([2]; mouse, in vivo): 50 min; lesions similar to psoriasis [6]: the lesions were resolved; In vitro penetration rate (apparent flux), prodrug compounds [7]: 1200 μg/cm^2/h; LD50 of HPP ([8]; rat, in vivo): 1200 mg/kg |
| CCN(CC)CCOC(=O)COC(=O)Cc1c(C)n(C(=O)c2ccc(Cl)cc2)c2ccc(OC)cc12.Cl [diethylaminoethyl 1-(4-chlorobenzoyl-5-methoxy-2-methyl-1H-indole-3-acetoxyacetate.HCl] | only a third of that of the control rabbits |  |  |  |  |  |  |  |
| CCN(CC)CCOC(=O)Cc1ccc(C(=O)c2ccc(C)cc2)n1C.Cl [diethylaminoethyl 1-methyl-5-(4-methylbenzoyl)-1H-pyrrole-2-acetate.HCl] | only a third of that of the control rabbits |  |  |  |  |  |  |  |
| CC(=O)O.CCN(CC)CCOC(=O)c1ccccc1Nc1cccc(C(F)(F)F)c1 [diethylaminoethyl 2-[[(3-(trifluoromethyl)phenyl)amino]benzoate.AcOH] |  |  |  | 37.27 ± 0.06 | 36.76 ± 0.05 | 36.65 ± 0.08 | 36.49 ± 0.07 | Peak plasma concentration of parent compound after prodrug compound [2, 11]: 20 mg/L; t, time to peak plasma level of parent compound after prodrug compound [2, 11]: 50 min; % (rate of writhing inhibition) [3, 12]: 54%; No. of Writhing [3, 12]: 16.1; LD50 of HPP ([8]; rats): 800 mg/kg; Solubility of HPP [9]: >400 mg/mL; In vitro penetration rate (apparent flux), prodrug compounds [5]: 2200 μg/cm^2/h |
| CC(=O)O.CCN(CC)CCOC(=O)Cc1cccc(C(=O)c2ccc(Br)cc2)c1N [diethylaminoethyl 2-amino-3-(4-bromo-benzoyl)benzeneacetate.AcOH] |  | 62% | 13.2 | 37.25 ± 0.06 | 36.71 ± 0.05 | 36.65 ± 0.08 | 36.64 ± 0.07 | Peak plasma concentration of parent compound after prodrug compound ([2]; mouse, in vivo): 20 mg/L; t, time to peak plasma level of parent compound after prodrug compound ([2]; mouse, in vivo): 50 min; lesions similar to psoriasis [6]: the lesions were resolved; In vitro penetration rate (apparent flux), prodrug compounds [7]: 1100 μg/cm^2/h; LD50 of HPP ([8]; rats): 1600 mg/kg |
| CCN(CC)CCOC(=O)Cc1cccc(C(=O)c2ccc(Br)cc2)c1N.Cl [diethylaminoethyl 2-amino-3-(4-bromo-benzoyl)benzeneacetate.HCl] | only a third of that of the control rabbits |  |  |  |  |  |  |  |
| CCN(CC)CCOC(=O)Cc1cn(-c2ccccc2)nc1-c1ccc(Cl)cc1.Cl [diethylaminoethyl 3-(4-chlorophenyl)-1-phenyl-1H-pyrazole-4-acetate.HCl] | only a third of that of the control rabbits |  |  |  |  |  |  |  |
| C=CCOc1ccc(CC(=O)OCCN(CC)CC)cc1Cl.CC(=O)O [diethylaminoethyl 3-chloro-4-(2-propenyloxy)benzeneacetate.AcOH] |  | 55% | 15.7 | 37.23 ± 0.07 | 36.80 ± 0.06 | 36.70 ± 0.05 | 36.67 ± 0.08 | Peak plasma concentration of parent compound after prodrug compound ([2]; mouse, in vivo): 20 mg/L; t, time to peak plasma level of parent compound after prodrug compound ([2]; mouse, in vivo): 50 min; lesions similar to psoriasis [6]: the lesions were resolved; In vitro penetration rate (apparent flux), prodrug compounds [7]: 1000 μg/cm^2/h; LD50 of HPP ([8]; rats): 3000 mg/kg |
| C=CCOc1ccc(CC(=O)OCCN(CC)CC)cc1Cl.Cl [diethylaminoethyl 3-chloro-4-(2-propenyloxy)benzeneacetate.HCl] | only a third of that of the control rabbits |  |  |  |  |  |  |  |
| CC(=O)O.CCN(CC)CCOC(=O)Cc1sc(-c2ccccc2)nc1-c1ccc(Cl)cc1 [diethylaminoethyl 4-(4-chlorophenyl)-2-phenyl-5-thiazoleacetate.AcOH] |  | 54% | 16.1 | 37.23 ± 0.06 | 36.81 ± 0.05 | 36.75 ± 0.08 | 36.71 ± 0.07 | Peak plasma concentration of parent compound after prodrug compound ([2]; mouse, in vivo): 20 mg/L; t, time to peak plasma level of parent compound after prodrug compound ([2]; mouse, in vivo): 50 min; lesions similar to psoriasis [6]: the lesions were resolved; In vitro penetration rate (apparent flux), prodrug compounds [7]: 1300 μg/cm^2/h; LD50 of HPP ([8]; rats): 1200 mg/kg |
| CCN(CC)CCOC(=O)Cc1sc(-c2ccccc2)nc1-c1ccc(Cl)cc1.Cl [diethylaminoethyl 4-(4-chlorophenyl)-2-phenyl-5-thiazoleacetate.HCl] | only a third of that of the control rabbits |  |  |  |  |  |  |  |
| CCN(CC)CCOC(=O)Cc1cc(C)c(C(=O)c2ccc(Cl)cc2)n1C.Cl [diethylaminoethyl 5-(4-Chlorobenzoyl)-1,4-dimethyl-1H-pyrrole-2-acetate.HCl] | only a third of that of the control rabbits |  |  |  |  |  |  |  |
| CC(=O)O.CCN(CC)CCOC(=O)C(C)c1c(C)n(C(=O)c2ccc(Cl)cc2)c2ccc(OC)cc12 (stereo not drawn) [diethylaminoethyl α-methyl-(p-chlorobenzoyl)-5-methoxy-2-methylindole 3-acetate.AcOH] |  | 61% | 13.8 | 37.35 ± 0.06 | 36.71 ± 0.05 | 36.60 ± 0.08 | 36.59 ± 0.07 | Peak plasma concentration of parent compound after prodrug compound [2, 11]: 2000 mg/L; t, time to peak plasma level of parent compound after prodrug compound [2, 11]: 50 min; Solubility of HPP [9]: >450 mg/mL; In vitro penetration rate (apparent flux), prodrug compounds [5]: 4000 μg/cm^2/h |
